Legend:
EGFR = EGFR (Homo sapiens, UniProt P00533); experiment: EGFR kinase assay (33P-ATP filter plate); format: biochemical; settings: for inhibition at 10 µM: 10 μM compound, read-out: EGFR percent of inhibition; for IC50: EGFR-PTK assay
Experimental: (§1) General description of the kinase assays: the kinase activity was assayed in 96-well microtiter plates at a final compound concentration of 10 μM in a total volume of 50 μl. Compounds were dissolved in 100% DMSO to prepare a 10 mM stock solution and than diluted with buffer to reach a 10 μM (or the required) final concentration. The kinase concentration was used to yield 10% ATP turn over. The ATP concentration was used at the KmATP and 12.5 μCi/ml adenosine 5′[γ-33P]triphosphate. The substrate concentration was used at 5 fold excess over the Km for the substrate. The reaction was incubated for 1 hour at room temperature and stopped by addition of 10 μl 50 mM EDTA. The assay was transferred to a 96 well MAPH filter plate (Millipore). The radioactivity was counted on a Microbeta microplate counter.

AKT1/PKBa = AKT1/PKBa (Homo sapiens, UniProt P31749); experiment: AKT1/PKBa kinase assay; format: biochemical; settings: 10 μM compound; read-out: AKT1/PKBa percent of inhibition
Experimental: as §1

Abl = Abl (Homo sapiens, UniProt P00519); experiment: Abl kinase assay; format: biochemical; settings: 10 μM compound; read-out: Abl percent of inhibition
Chain of Abl (P00519 whole entry, species assumed): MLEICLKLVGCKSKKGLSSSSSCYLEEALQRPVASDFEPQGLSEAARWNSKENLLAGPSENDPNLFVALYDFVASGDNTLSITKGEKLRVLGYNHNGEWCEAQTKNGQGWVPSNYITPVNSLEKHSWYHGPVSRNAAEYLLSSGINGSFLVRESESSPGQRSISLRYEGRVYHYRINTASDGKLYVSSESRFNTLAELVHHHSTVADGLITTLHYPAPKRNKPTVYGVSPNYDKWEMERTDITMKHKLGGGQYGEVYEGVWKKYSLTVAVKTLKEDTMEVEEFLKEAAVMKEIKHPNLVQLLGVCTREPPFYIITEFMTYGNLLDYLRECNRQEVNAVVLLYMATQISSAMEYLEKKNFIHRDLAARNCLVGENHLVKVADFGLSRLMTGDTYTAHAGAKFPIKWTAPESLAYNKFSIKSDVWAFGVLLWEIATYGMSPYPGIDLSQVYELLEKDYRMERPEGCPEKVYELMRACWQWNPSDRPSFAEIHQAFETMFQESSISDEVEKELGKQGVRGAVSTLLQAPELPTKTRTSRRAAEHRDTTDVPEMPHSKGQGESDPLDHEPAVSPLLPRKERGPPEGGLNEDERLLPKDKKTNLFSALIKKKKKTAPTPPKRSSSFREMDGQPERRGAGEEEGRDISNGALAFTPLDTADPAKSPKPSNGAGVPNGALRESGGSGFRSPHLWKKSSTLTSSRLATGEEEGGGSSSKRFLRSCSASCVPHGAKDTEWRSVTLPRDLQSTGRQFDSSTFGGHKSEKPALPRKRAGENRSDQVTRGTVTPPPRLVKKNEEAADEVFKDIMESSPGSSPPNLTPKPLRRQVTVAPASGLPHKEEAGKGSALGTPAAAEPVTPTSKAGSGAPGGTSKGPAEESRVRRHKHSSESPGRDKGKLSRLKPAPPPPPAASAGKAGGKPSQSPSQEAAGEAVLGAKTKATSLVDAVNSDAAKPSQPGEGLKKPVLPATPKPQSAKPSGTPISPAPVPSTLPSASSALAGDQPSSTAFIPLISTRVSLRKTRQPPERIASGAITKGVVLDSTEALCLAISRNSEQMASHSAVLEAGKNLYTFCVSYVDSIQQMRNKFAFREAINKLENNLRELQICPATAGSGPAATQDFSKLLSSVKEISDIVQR
Experimental: as §1

CDK2/CycA = CDK2/CycA (Homo sapiens, UniProt P24941); experiment: CDK2/CycA kinase assay; format: biochemical; settings: 10 μM compound; read-out: CDK2/CycA percent of inhibition
Experimental: as §1

CK1-alpha = CK1-alpha (Homo sapiens, UniProt P48729); experiment: CK1-alpha kinase assay; format: biochemical; settings: 10 μM compound; read-out: CK1-alpha percent of inhibition
Experimental: as §1

GSK-3beta = GSK-3beta (Homo sapiens, UniProt P49841); experiment: GSK-3beta kinase assay; format: biochemical; settings: 10 μM compound; read-out: GSK-3beta percent of inhibition
Experimental: as §1

IKK-beta = molecular target: T1, IKK-beta (Homo sapiens, UniProt O14920); experiment: IKK-beta kinase assay; format: biochemical; settings: 10 μM compound; read-out: IKK-beta percent of inhibition
T1 sequence (O14920 1-756): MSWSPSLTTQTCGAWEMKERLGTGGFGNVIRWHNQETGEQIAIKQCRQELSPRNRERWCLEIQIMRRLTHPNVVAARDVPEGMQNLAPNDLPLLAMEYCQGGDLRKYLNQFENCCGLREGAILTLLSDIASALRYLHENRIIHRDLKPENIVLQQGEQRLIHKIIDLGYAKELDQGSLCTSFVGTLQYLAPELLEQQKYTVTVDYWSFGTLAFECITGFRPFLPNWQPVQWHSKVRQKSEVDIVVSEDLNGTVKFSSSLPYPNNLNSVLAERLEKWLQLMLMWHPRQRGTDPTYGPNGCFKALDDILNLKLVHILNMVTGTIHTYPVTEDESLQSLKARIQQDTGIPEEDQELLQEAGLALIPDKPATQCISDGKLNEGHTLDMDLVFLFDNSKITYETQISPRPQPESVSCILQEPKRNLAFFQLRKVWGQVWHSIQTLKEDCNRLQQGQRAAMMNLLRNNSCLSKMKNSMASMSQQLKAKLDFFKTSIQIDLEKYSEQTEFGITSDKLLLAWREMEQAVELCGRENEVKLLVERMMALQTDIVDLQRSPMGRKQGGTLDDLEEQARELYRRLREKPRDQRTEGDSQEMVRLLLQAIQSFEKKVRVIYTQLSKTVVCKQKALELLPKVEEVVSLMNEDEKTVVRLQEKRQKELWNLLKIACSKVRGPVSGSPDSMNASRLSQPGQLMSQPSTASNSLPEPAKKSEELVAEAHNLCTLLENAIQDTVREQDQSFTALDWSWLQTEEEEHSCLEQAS
Experimental: as §1

InsR = InsR (Homo sapiens, UniProt P06213); experiment: InsR kinase assay; format: biochemical; settings: 10 μM compound; read-out: InsR percent of inhibition
Experimental: as §1

Jnk1a1 = Jnk1a1 (Homo sapiens, UniProt P45983); experiment: Jnk1a1 kinase assay; format: biochemical; settings: 10 μM compound; read-out: Jnk1a1 percent of inhibition
Chain of Jnk1a1 (P45983 1-384 isoform P45983-2): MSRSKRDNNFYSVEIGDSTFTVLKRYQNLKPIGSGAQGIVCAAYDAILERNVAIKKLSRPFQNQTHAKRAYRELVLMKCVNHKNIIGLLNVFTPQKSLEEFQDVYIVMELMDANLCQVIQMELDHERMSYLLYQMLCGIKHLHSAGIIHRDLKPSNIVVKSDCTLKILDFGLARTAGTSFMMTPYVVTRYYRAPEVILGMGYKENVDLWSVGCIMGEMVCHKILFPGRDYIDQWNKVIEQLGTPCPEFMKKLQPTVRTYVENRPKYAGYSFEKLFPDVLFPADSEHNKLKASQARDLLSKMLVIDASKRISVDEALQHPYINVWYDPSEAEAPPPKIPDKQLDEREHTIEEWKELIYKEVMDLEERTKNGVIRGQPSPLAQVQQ
Experimental: as §1

Kit = Kit (Homo sapiens, UniProt P10721); experiment: Kit kinase assay; format: biochemical; settings: 10 μM compound; read-out: Kit percent of inhibition
Experimental: as §1

MAPK-ERK1 = MAPK-ERK1 (Homo sapiens, UniProt P27361); experiment: MAPK-ERK1 kinase assay; format: biochemical; settings: 10 μM compound; read-out: MAPK-ERK1 percent of inhibition
Chain of MAPK-ERK1 (P27361 whole entry): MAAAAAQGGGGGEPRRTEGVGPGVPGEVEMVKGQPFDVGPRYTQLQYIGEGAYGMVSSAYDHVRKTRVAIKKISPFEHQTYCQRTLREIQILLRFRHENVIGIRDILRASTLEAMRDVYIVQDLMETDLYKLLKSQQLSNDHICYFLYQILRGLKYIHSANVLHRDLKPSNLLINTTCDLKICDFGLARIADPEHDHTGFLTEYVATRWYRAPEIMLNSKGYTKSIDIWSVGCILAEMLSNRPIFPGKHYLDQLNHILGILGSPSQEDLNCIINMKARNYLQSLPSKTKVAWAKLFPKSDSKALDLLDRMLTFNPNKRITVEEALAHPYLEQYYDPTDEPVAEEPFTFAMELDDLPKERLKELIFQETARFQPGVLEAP
Experimental: as §1

PDGFR-beta = PDGFR-beta (Homo sapiens, UniProt P09619); experiment: PDGFR-beta kinase assay; format: biochemical; settings: 10 μM compound; read-out: PDGFR-beta percent of inhibition
Experimental: as §1

ROCK2 = ROCK2 (Homo sapiens, UniProt O75116); experiment: ROCK2 kinase assay; format: biochemical; settings: 10 μM compound; read-out: ROCK2 percent of inhibition
Experimental: as §1

RSK1 = RSK1 (Homo sapiens, UniProt Q15418); experiment: RSK1 kinase assay; format: biochemical; settings: 10 μM compound; read-out: RSK1 percent of inhibition
Chain of RSK1 (Q15418 whole entry, species assumed): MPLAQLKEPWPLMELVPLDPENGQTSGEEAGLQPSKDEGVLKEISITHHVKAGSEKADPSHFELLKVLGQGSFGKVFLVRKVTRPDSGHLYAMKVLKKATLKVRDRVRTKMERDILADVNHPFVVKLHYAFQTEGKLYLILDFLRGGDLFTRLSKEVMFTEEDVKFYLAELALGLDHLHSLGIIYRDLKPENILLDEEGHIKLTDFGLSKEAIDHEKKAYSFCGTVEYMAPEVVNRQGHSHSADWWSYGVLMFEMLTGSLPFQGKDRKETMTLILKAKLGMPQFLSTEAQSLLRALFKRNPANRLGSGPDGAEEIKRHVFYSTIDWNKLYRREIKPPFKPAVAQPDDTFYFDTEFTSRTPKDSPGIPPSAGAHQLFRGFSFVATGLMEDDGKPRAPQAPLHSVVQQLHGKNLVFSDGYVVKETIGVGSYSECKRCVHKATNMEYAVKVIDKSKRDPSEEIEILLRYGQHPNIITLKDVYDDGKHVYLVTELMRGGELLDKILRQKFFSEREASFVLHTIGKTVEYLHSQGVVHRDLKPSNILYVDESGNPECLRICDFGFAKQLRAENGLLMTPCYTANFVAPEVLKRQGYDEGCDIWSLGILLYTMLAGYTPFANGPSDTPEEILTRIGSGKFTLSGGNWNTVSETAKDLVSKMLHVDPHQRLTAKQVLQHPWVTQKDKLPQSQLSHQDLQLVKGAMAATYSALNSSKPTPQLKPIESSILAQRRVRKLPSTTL
Experimental: as §1

SRPK1 = SRPK1 (Homo sapiens, UniProt Q96SB4); experiment: SRPK1 kinase assay; format: biochemical; settings: 10 μM compound; read-out: SRPK1 percent of inhibition
Chain of SRPK1 (Q96SB4 whole entry, species assumed): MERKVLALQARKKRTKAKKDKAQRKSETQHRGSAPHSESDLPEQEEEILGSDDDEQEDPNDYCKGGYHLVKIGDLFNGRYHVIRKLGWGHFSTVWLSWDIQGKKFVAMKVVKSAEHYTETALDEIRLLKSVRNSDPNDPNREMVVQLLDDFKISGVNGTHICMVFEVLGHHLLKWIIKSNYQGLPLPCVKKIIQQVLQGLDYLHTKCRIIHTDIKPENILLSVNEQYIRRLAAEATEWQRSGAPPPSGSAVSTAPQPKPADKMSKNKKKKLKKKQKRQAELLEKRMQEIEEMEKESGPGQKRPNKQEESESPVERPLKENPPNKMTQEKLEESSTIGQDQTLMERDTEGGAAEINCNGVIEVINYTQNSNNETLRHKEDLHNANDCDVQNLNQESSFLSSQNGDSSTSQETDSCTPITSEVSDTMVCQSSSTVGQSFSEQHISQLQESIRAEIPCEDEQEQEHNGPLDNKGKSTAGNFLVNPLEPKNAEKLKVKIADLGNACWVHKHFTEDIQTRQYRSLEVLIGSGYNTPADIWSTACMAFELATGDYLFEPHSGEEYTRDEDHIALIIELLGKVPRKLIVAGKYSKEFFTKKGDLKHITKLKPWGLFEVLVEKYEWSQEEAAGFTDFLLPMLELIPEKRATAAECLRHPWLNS
Experimental: as §1

c-Raf = c-Raf (Homo sapiens, UniProt P04049); experiment: c-Raf kinase assay; format: biochemical; settings: 10 μM compound; read-out: c-Raf percent of inhibition
Chain of c-Raf (P04049 whole entry, species assumed): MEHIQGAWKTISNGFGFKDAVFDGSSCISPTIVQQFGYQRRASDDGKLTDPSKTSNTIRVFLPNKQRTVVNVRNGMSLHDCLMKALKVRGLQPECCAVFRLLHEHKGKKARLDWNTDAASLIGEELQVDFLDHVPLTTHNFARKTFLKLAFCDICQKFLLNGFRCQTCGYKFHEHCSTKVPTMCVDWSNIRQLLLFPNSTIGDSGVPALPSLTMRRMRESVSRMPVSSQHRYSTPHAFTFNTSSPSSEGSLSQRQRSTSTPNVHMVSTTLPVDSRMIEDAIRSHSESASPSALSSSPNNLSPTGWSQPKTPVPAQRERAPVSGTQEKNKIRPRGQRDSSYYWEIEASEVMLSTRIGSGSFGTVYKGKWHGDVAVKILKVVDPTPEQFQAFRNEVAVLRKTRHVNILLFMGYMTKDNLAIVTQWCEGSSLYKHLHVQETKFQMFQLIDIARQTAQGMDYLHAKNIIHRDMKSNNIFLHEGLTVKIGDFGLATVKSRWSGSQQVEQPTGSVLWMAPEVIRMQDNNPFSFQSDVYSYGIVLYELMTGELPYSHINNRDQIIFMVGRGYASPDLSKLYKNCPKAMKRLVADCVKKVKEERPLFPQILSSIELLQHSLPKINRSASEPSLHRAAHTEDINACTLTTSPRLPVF
Experimental: as §1

c-Src = c-Src (Homo sapiens, UniProt P12931); experiment: c-Src kinase assay; format: biochemical; settings: 10 μM compound; read-out: c-Src percent of inhibition
Experimental: as §1

cMet = cMet (Homo sapiens, UniProt P08581); experiment: cMet kinase assay; format: biochemical; settings: 10 μM compound; read-out: cMet percent of inhibition
Experimental: as §1

P56Lck = P56Lck (Homo sapiens, UniProt P06239); experiment: P56Lck kinase assay; format: biochemical; settings: 10 μM compound; read-out: P56Lck percent of inhibition
Chain of P56Lck (P06239 whole entry, species assumed): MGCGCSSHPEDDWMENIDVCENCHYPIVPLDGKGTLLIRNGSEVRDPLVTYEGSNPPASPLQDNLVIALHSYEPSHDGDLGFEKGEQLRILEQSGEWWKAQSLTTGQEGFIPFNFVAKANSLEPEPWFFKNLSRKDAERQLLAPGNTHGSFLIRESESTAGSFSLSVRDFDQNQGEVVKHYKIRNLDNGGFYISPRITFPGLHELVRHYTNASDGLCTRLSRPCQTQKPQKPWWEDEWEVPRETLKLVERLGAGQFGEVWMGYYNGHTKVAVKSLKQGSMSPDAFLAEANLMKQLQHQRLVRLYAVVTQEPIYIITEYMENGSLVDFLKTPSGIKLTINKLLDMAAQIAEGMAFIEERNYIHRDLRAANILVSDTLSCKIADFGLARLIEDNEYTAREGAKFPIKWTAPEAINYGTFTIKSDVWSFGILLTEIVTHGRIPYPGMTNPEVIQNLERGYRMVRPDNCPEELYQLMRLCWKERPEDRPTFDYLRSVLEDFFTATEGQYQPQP
Experimental: as §1

P70S6K = P70S6K (Homo sapiens, UniProt P23443); experiment: P70S6K kinase assay; format: biochemical; settings: 10 μM compound; read-out: P70S6K percent of inhibition
Chain of P70S6K (P23443 whole entry): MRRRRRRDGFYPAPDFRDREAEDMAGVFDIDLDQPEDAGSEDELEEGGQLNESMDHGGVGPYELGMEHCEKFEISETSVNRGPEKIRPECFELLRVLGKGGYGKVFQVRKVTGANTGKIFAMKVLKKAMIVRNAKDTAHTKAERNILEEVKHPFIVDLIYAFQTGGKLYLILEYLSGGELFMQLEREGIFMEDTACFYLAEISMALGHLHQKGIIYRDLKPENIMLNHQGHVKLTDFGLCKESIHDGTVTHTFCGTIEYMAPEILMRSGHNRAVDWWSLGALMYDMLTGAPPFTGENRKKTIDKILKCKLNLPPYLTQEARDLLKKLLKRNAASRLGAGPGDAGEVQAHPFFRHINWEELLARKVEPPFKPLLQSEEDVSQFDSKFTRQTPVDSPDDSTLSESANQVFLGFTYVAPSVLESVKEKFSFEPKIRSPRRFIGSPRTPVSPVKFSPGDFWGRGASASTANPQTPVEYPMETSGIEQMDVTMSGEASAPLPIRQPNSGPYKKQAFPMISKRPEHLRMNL
Experimental: as §1

| Compound | inhibition at 10 µM (EGFR) [%] | inhibition at 10 µM (AKT1/PKBa) [%] | inhibition at 10 µM (Abl) [%] | inhibition at 10 µM (CDK2/CycA) [%] | inhibition at 10 µM (CK1-alpha) [%] | inhibition at 10 µM (GSK-3beta) [%] | inhibition at 10 µM (IKK-beta) [%] | inhibition at 10 µM (InsR) [%] | inhibition at 10 µM (Jnk1a1) [%] | inhibition at 10 µM (Kit) [%] | inhibition at 10 µM (MAPK-ERK1) [%] | inhibition at 10 µM (PDGFR-beta) [%] | inhibition at 10 µM (ROCK2) [%] | inhibition at 10 µM (RSK1) [%] | inhibition at 10 µM (SRPK1) [%] | inhibition at 10 µM (c-Raf) [%] | inhibition at 10 µM (c-Src) [%] | inhibition at 10 µM (cMet) [%] | inhibition at 10 µM (P56Lck) [%] | inhibition at 10 µM (P70S6K) [%] | also measured |
| --- | --- | --- | --- | --- | --- | --- | --- | --- | --- | --- | --- | --- | --- | --- | --- | --- | --- | --- | --- | --- | --- |
| Fc1ccccc1Nc1ncnc2sc3c(c12)CCCC3 [Compound 1, (2-Fluoro-phenyl)-(5,6,7,8-tetrahydro-benzo[4,5]thieno[2,3-d]pyrimidin-4-yl)-amine] | 97 | -5 | 10 | 3 | 6 | 7 | 23 | -7 | -4 | 13 | -8 | 4 | 3 | -18 | 11 | 23 | 13 | 1 | 10 | -23 | melting point: 160.7 °C |
| Fc1cccc(Nc2ncnc3sc4c(c23)CCCC4)c1 [Compound 2, (3-Fluoro-phenyl)-(5,6,7,8-tetrahydro-benzo[4,5]thieno[2,3-d]pyrimidin-4-yl)-amine] | 98 | -7 | -19 | -1 | 6 | 3 | 19 | -6 | -3 | -5 | -14 | 4 | 6 | -22 | -5 | 16 | 6 | -10 | 25 | -26 | IC50 (EGFR): 12.4 nM; melting point: 210.6 °C |
| Brc1cccc(Nc2ncnc3sc4c(c23)CCCC4)c1 [Compound 3, (3-Bromo-phenyl)-(5,6,7,8-tetrahydro-benzo[4,5]thieno[2,3-d]pyrimidin-4-yl)-amine] | 100 | -27 | -36 | 4 | 17 | -10 | 11 | -9 | 4 | -2 | 0 | 1 | 12 | 23 | 8 | -4 | 17 | -8 | 17 | 4 | IC50 (EGFR): 2.61 nM; melting point: 169 °C |
| Nc1cccc(Nc2ncnc3sc4c(c23)CCCC4)c1 [Compound 4, N-(5,6,7,8-Tetrahydro-benzo[4,5]thieno[2,3-d]pyrimidin-4-yl)-benzene-1,3-diamine] | 98 | 1 | -7 | 16 | 5 | -2 | 12 | -7 | 6 | 2 | 8 | 0 | 7 | 6 | 6 | 14 | 24 | 2 | 9 | 2 | IC50 (EGFR): 16.8 nM; melting point: 164.3 °C (dec.) |
| Fc1ccc(Nc2ncnc3sc4c(c23)CCCC4)cc1 [Compound 6, (4-Fluoro-phenyl)-(5,6,7,8-tetrahydro-benzo[4,5]thieno[2,3-d]pyrimidin-4-yl)-amine] | 99 | -8 | 4 | 11 | 7 | -1 | 8 | 44 | 15 | 7 | 5 | -12 | 6 | 19 | 9 | 12 | 12 | 4 | 11 | -7 | IC50 (EGFR): 10.5 nM |
